Laboratory results from patent US11466028B2, “Fused 1,4-oxazepines as BET protein degraders” (THE REGENTS OF THE UNIVERSITY OF MICHIGAN, priority 2016, dated 2022).
Read-outs that look alike come from different tables or passages of the source.

Assays:
[1] = test system: MDA-MB-231; assay: CellTiter-Glo cell growth inhibition, MDA-MB-231; type: cell-based; details: Homo sapiens, MDA-MB-231, 96 h, 4 days, Table 4
Procedure: (§1) Cell growth inhibitory activity of representative Compounds of the Disclosure was determined using the CellTiter-Glo® Luminescent Cell Viability Assay. Cells were seeded in 384-well white opaque cell culture plates at a density of 2,000 cells/well with serially diluted compounds and incubated at 37° C. in an atmosphere of 95% air and 5% CO2 for 4 days. Cell viability was determined using the CellTiter-Glo® Luminescent Cell Viability Assay Kit (Promega, Madison, Wis.) according to the manufacture's instruction. Briefly, a volume of CellTiter-Glo® Reagent equal to the volume of cell culture medium was added to each well, and then the plates were incubated at room temperature for 10-20 minutes. The luminescent signal was measured using a Tecan Infinite M1000 multimode microplate reader (Tecan, Morrisville, N.C.). The half maximal inhibitory concentration (IC50) was calculated using the GraphPad Prism 5 software (GraphPad Software, La Jolla, Calif.).

[2] = test system: MOLM-13; assay: CellTiter-Glo cell growth inhibition, MOLM-13; type: cell-based; details: Homo sapiens
Procedure: as §1
(§2) Cpd. Nos. 18 and 19 were tested in various leukemia cell lines using the CellTiter-Glo® Luminescent Cell Viability Assay as described in Example 35.

[3] = test system: RS4;11; assay: CellTiter-Glo cell growth inhibition, RS4;11; type: cell-based; details: Homo sapiens
Procedure: as §1, §2

[4] = test system: RS4;11 xenograph tumors; assay: RS4;11 xenograft model; type: in vivo, SCID mice; details: SCID mice
Procedure: Cpd. Nos. 7 and 11 were dissolved in 10% PCP [10% PEG400 (Sigma), 3% Cremophor (Sigma), and 87% PBS (Gibco)]. The pH of the drug solutions were checked before use and adjusted with 0.5N NaOH to be between pH 6.5 and 8.0 for IV (intravenous) administration.
RS4;11 cells were maintained at 37° C., 95% air, 5% carbon dioxide in Improved MEM (Richter's Mod.) supplemented with 10% Fetal Bovine Serum, 100 units/ml of penicillin and 100 units/ml of streptomycin (GIBCO™, Invitrogen Corp.) and passaged twice weekly.
Tumor cells for xenografts were harvested with Trypsin (0.05%)-EDTA (0.53 mM) (GIBCO™, Invitrogen Corp.), growth medium added and cells placed on ice. Cells were washed once with 1×PBS (GIBCO™, Invitrogen Corp.) and re-suspended in PBS. After washing in PBS, cells were re-suspended in an ice cold mixture of 1:1 PBS and Matrigel (BD Biosciences, Invitrogen Corp.) for a final Matrigel protein concentration of 5 mg/ml. Cells at 5×10^6 cells in 0.1 ml were injected subcutaneously (s.c.) into the flank region of each mouse using a 25 gauge needle. All tumors were inoculated into SCID mice (strain:236) C.B-17 SCID, Charles River.
The size of tumors growing in the mice was measured in two dimensions using calipers. Tumor volume (mm^3)═(A×B^2)/2 where A and B are the tumor length and width (in mm), respectively. During treatment, tumor volume and body weight were measured three times a week. After the treatment was stopped, tumor volume and body weight was measured at least once a week.
Tumors were not allowed to exceed 10% of the animals total body weight. If an animal had two or more tumors the total weight of all tumors were not allowed to exceed 10% of the animal's total body weight. At the end of the experimental period or when tumor size approached 10% of the total body weight, the animal was euthanized.
Before treatment began, tumors were allowed to grow to 100-200 mm^3 in volume, at which point the blood vessel supplies to the tumor should have been well established. Mice with tumors within acceptable size range were randomized into treatment groups of seven mice. Cpd. Nos. 7 and 11 were given i.v. at 10 mg/kg at days 1,3, and 5 per week for two weeks. The Control group received vehicle alone. Cpd. Nos. 16, 18, 22 and 48 were given i.v. at 5 mg/kg at days 1, 3, and 5 per week for two weeks. The Control group received vehicle alone.
(§3) Representative Compounds of the Disclosure were tested in the RS4;11 and other xenograph models using similar techniques. […] No. 22 in the MDA-MB-231 TNBC model.

[5] = test system: MV4;11 xenograph; assay: MV4;11 xenograph model; type: in vivo; details: FIG. 9
Procedure: as §3

[6] = test system: MV4; 11; assay: CellTiter-Glo cell viability, MV4;11 leukemia cell line; type: cell-based; details: Homo sapiens, Table 5
Procedure: as §1, §2

[7] = test system: MOLM16; assay: CellTiter-Glo cell viability, MOLM16 leukemia cell line; type: cell-based; details: Table 5
Procedure: as §1, §2

[8] = test system: HL60; assay: CellTiter-Glo cell viability, HL60 leukemia cell line; type: cell-based; details: Homo sapiens, HL-60, Table 5
Procedure: as §1, §2

[9] = test system: AML5; assay: CellTiter-Glo cell viability, AML5 leukemia cell line; type: cell-based; details: Table 5
Procedure: as §1, §2

[10] = test system: MonoMac6; assay: CellTiter-Glo cell viability, MonoMac6 leukemia cell line; type: cell-based; details: Homo sapiens, MONO-MAC-6, Table 5
Procedure: as §1, §2

[11] = test system: AML3; assay: CellTiter-Glo cell viability, AML3 leukemia cell line; type: cell-based; details: Table 5
Procedure: as §1, §2

[12] = test system: KG1; assay: CellTiter-Glo cell viability, KG1 leukemia cell line; type: cell-based; details: Homo sapiens, KG-1, Table 5
Procedure: as §1, §2

[13] = molecular target: T1, BRD2 (Homo sapiens, UniProt P25440); assay: Western blot, degradation of BRD2 in RS4;11 cells; type: cell-based; details: 2.5 h, as compared to Compound A, FIG. 1
T1 construct: endogenous in cells; host or cells: RS4;11 and MOLM-13 leukemia cells
Procedure: (§4) Cells were treated with compounds at the indicated concentrations for 2.5 h and 3 h, respectively, for RS4;11 (see FIG. 1) and MOLM-13 (see FIG. 2) cells. Compound A is ((S)-3-benzyl-6,9-dimethyl-2-((1-methyl-1H-pyrazol-4-yl)ethynyl)-4H,6H-thieno[2,3-e][1,2,4]triazolo[3,4-c][1,4]oxazepine). See Cpd. No. 85 of U.S. Appl. No. 62/295,271.
(§5) Collected cells were lysed in lysis buffer [1% CHAPS, 150 mM NaCl, 20 mM Tris-HCl, 1 mM. EDTA, 1 mM EGTA, and COMPLETE proteinase inhibitor (Roche)] for 30 minutes on ice. Protein concentrations were determined using the Bio-Rad Protein Assay Dye reagent. Whole tumor lysates (20 μg) were separated on a 4-20% Novex gels (Invitrogen). The separated proteins were transferred to a PVDF membrane (BIO-RAD) and the PVDF membrane was then blotted with 5% Blotting-Grade Blocker (BIO-RAD) for 1 hour at room temperature. The primary antibodies used were BRD4 rabbit polyclonal antibody [Bethyl Laboratories, Inc, cat #A301] and BRD2 antibody.
(§6) The BIO-RAD Clarity Western ECL Substrates (BIO-RAD) and HyBlot CL film (Denville) were used for signal development and detection using a SRX-101A tabletop processor (Konica Minolta).

[14] = molecular target: T2, BRD4 (Homo sapiens, UniProt O60885); assay: Western blot, degradation of BRD4 in RS4;11 cells; type: cell-based; details: 2.5 h, as compared to Compound A, FIG. 1
T2 construct: Collected cells were lysed in lysis buffer; endogenous in cells; host or cells: RS4;11 and MOLM-13 leukemia cells
Procedure: as §4, §5, §6

[15] = molecular target: T1, BRD2; assay: Western blot, degradation of BRD2 in MOLM-13 cells; type: cell-based; details: 3 h, as compared to Compound A, FIG. 2
Procedure: as §4, §5, §6

[16] = molecular target: T2, BRD4; assay: Western blot, degradation of BRD4 in MOLM-13 cells; type: cell-based; details: 3 h, as compared to Compound A, FIG. 2
Procedure: as §4, §5, §6

[17] = MOLM-13, 96 h, 4 days, Table 4, read-out: MOLM-13 IC50
[18] = RS4-11, 96 h, 4 days, Table 4, read-out: RS-4, 11 IC50
[19] = i.v. 5 mg/kg at days 1, 3, 5 per week for two weeks, FIG. 4

T1 sequence (P25440 whole entry): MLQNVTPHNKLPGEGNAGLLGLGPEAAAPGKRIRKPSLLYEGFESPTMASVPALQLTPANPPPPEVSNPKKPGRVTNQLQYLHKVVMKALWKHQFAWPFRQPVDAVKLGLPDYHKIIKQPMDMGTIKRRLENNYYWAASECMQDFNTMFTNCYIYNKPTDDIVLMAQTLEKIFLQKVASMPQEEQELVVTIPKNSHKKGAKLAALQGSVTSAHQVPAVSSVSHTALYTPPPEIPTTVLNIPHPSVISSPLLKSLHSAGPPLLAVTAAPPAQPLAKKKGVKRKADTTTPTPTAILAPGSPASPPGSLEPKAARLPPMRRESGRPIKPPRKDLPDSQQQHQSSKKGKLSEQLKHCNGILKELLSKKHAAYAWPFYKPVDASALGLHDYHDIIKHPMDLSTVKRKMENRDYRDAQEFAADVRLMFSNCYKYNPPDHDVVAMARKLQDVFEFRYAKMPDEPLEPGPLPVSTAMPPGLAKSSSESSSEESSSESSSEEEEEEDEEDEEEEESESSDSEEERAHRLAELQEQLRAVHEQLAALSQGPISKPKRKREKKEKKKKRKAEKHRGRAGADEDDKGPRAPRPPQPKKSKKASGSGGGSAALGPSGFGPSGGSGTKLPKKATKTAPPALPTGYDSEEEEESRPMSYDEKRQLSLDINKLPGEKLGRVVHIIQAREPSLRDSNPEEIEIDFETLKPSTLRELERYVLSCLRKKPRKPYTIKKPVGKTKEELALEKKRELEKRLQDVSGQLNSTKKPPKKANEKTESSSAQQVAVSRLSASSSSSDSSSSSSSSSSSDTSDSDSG

| Compound | IC50 [1] [nM] | IC50 [2, 17] [nM] | IC50 [3, 18] [nM] | other results |
| --- | --- | --- | --- | --- |
| Cc1nnc2n1-c1sc(C#Cc3cnn(CCCCCc4cccc5c4CN(C4CCC(=O)NC4=O)C5=O)c3)c(Cc3ccccc3)c1COC2 (centres unmarked) [Cpd. No. 48, 3-(4-(5-(4-((3-benzyl-9-methyl-4H,6H-thieno[2,3-e][1,2,4]triazolo[3,4-c][1,4]oxazepin-2-yl)ethynyl)-1H-pyrazol-1-yl)pentyl)-1-oxoisoindolin-2-yl) piperidine-2,6-dione] | 0.33 | 1.7 | 0.22 | tumor regression in RS4;11 xenograph tumors [4, 19]: induce tumor regression |
| Cc1nnc2n1-c1sc(C#Cc3cnn(CCCCNc4cccc5c4C(=O)N(C4CCC(=O)NC4=O)C5=O)c3)c(Cc3ccccc3)c1COC2 (centres unmarked) [Cpd. No. 16, 4-((4-(4-((3-benzyl-9-methyl-4H,6H-thieno[2,3-e][1,2,4]triazolo[3,4-c][1,4]oxazepin-2-yl)ethynyl)-1H-pyrazol-1-yl)butyl)amino)-2-(2,6-dioxopiperidin-3-yl) isoindoline-1,3-dione] | 0.29 | 0.9 | 0.1 | tumor regression in RS4;11 xenograph tumors [4, 19]: induce tumor regression |
| Cc1nnc2n1-c1sc(C#Cc3cnn(CCCCNc4cccc5c4CN(C4CCC(=O)NC4=O)C5=O)c3)c(Cc3ccccc3)c1COC2 (centres unmarked) [Cpd. No. 17, 3-(4-((4-(4-((3-benzyl-9-methyl-4H,6H-thieno[2,3-e][1,2,4]triazolo[3,4-c][1,4]oxazepin-2-yl)ethynyl)-1H-pyrazol-1-yl)butyl)amino)-1-oxoisoindolin-2-yl) piperidine-2,6-dione] | 0.21 | 0.5 | 0.06 | tumor regression in the MV4;11 xenograph model [5]: induce tumor regression |
| Cc1nnc2n1-c1sc(C#Cc3cnn(CCCCCc4cccc5c4CN(C4CCC(=O)NC4=O)C5=O)c3)c(Cc3ccccc3)c1CO[C@H]2C (stereo partly drawn) [Cpd. No. 19, 3-(4-(5-(4-(((S)-3-benzyl-6,9-dimethyl-4H,6H-thieno[2,3-e][1,2,4]triazolo[3,4-c][1,4]oxazepin-2-yl)ethynyl)-1H-pyrazol-1-yl)pentyl)-1-oxoisoindolin-2-yl) piperidine-2,6-dione] | 12 | 2.7 | 0.06 | IC50 ([2]; MOLM-13, Table 5, read-out: IC50 (nM) MOLM13): 7.6 nM; IC50 ([3]; RS4-11, Table 5, read-out: IC50 (nM) RS4, 11): 0.8 ± 0.1 nM; IC50 [6]: 0.46 ± 0.1 nM; IC50 [7]: 0.15 ± 0.06 nM; IC50 [8]: 0.97 ± 0.08 nM; IC50 [9]: 0.84 ± 0.14 nM; IC50 [10]: 1.8 ± 0.3 nM; IC50 [11]: 2.44 ± 0.22 nM; IC50 [12]: 3.99 ± 0.18 nM; degradation of BRD2 protein (Western blot) [13]: induce degradation; degradation of BRD4 protein (Western blot) [14]: induce degradation; degradation of BRD2 protein (Western blot) [15]: induce degradation; degradation of BRD4 protein (Western blot) [16]: induce degradation |
| Cc1nnc2n1-c1sc(C#Cc3cn(CCCC#Cc4cccc5c4CN(C4CCC(=O)NC4=O)C5=O)cn3)c(Cc3ccccc3)c1COC2 (centres unmarked) [Cpd. No. 50, 3-(4-(5-(4-((3-benzyl-9-methyl-4H,6H-thieno[2,3-e][1,2,4]triazolo[3,4-c][1,4]oxazepin-2-yl)ethynyl)-1H-imidazol-1-yl)pent-1-yn-1-yl)-1-oxoisoindolin-2-yl)piperidine-2,6-dione] | > 100 | > 10 | > 1 |  |
| Cc1nnc2n1-c1sc(C#Cc3cn(CCCC#Cc4cccc5c4C(=O)N(C4CCC(=O)NC4=O)C5=O)cn3)c(Cc3ccccc3)c1CO[C@H]2C (stereo partly drawn) [compound 21, 4-(5-(4-(((S)-3-benzyl-6,9-dimethyl-4H,6H-thieno[2,3-e][1,2,4]triazolo[3,4-c][1,4]oxazepin-2-yl)ethynyl)-1H-imidazol-1-yl)pent-1-yn-1-yl)-2-(2,6-dioxopiperidin-3-yl)isoindoline-1,3-dione] | 60 | 15.7 | 3 |  |
| Cc1nnc2n1-c1sc(C#Cc3cnn(CCCCOc4cccc5c4CN(C4CCC(=O)NC4=O)C5=O)c3)c(Cc3ccccc3)c1COC2 (centres unmarked) [compound 65, 3-(4-(4-(4-((3-benzyl-9-methyl-4H,6H-thieno[2,3-e][1,2,4]triazolo[3,4-c][1,4]oxazepin-2-yl)ethynyl)-1H-pyrazol-1-yl)butoxy)-1-oxoisoindolin-2-yl)piperidine-2,6-dione] |  |  |  | tumor regression in the MV4;11 xenograph model [5]: induce tumor regression |
| Cc1nnc2n1-c1sc(C#Cc3cnn(CCCCNc4cccc5c4CN(C4CCC(=O)NC4=O)C5=O)c3)c(Cc3ccccc3)c1CO[C@H]2C (stereo partly drawn) [Cpd. No. 11, 3-(4-((4-(4-(((S)-3-benzyl-6,9-dimethyl-4H,6H-thieno[2,3-e][1,2,4]triazolo[3,4-c][1,4]oxazepin-2-yl)ethynyl)-1H-pyrazol-1-yl)butyl)amino)-1-oxoisoindolin-2-yl) piperidine-2,6-dione] | 2.3 | 0.4 |  | tumor regression in RS4;11 xenograph tumors ([4]; i.v. 10 mg/kg at days 1, 3, 5 per week for two weeks, FIG. 3): induce tumor regression |
